Results reported in US12071434B2, “Heterocyclic compound” (Takeda Pharmaceutical Company Limited, priority 2018, dated 2024).

Biological target: T1, human orexin type 2 receptor (Homo sapiens, UniProt O43614)
T1 construct: expressed in transfected cells
T1 sequence (O43614 1-444): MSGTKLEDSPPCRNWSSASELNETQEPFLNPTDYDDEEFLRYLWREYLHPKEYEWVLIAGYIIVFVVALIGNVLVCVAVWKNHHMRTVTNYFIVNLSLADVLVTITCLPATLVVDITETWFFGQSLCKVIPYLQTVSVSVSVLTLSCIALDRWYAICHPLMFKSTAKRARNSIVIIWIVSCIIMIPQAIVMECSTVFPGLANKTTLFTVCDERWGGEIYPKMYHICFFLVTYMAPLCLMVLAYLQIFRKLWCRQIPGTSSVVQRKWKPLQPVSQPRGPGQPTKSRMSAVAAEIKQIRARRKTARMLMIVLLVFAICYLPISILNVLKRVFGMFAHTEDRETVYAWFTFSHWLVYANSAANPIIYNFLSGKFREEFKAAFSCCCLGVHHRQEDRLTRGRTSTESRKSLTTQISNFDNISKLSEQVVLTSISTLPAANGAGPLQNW
Experiment: Measurement of orexin type 2 receptor agonist activity (calcium fluorescence, Fluo-4 AM, FDSS) in CHO cells forcibly expressing human OX2 receptor
Assay type: cell-based
Details: test compound 3 μM, DMSO = 0%, orexin A (human) 10 nM = 100%
From the text: To obtain a cell clone stably expressing human orexin type 2 receptor, human orexin type 2 receptor cDNA was inserted into pcDNA3.1(+) plasmid vector (Invitrogen), and a plasmid DNA for expression of human orexin type 2 receptor (pcDNA3.1(+)/hOX2R) was cloned. The plasmid DNA was introduced into CHO-dhfr cell by an electroporation method, and human orexin type 2 receptor expressing clone cells were obtained by limiting dilution method by using G418 drug resistance as a selection marker.
CHO cells forcibly expressing human OX2 receptor were seeded in each well of 384 well black transparent bottom plate (BD Falcon) at 7,500 cells/well, and cultured for one day in a 5% CO2 incubator at 37° C. After removal of the medium in the cell plate, assay buffer A containing a calcium indicator (HBSS (Thermo Fisher Scientific), 20 mM HEPES (Thermo Fisher Scientific), 0.1% BSA (Sigma-Aldrich), 2.5 μg/mL Fluo-4 AM (DOJINDO Chemical), 0.08% Pluronic F127 (DOJINDO Chemical), 1.25 mM probenecid (DOJINDO Chemical)) was added at 30 μL/well. The plate was stood for 30 min in a 5% CO2 incubator at 37° C., and further stood at room temperature for 30 min. A test compound prepared by diluting with assay buffer B (HBSS, 20 mM HEPES, 0.1% BSA) was added at 10 μL/well, and the fluorescence value was measured by FDSSpCELL (Hamamatsu Photonics K.K.) every one sec for 1 min, and thereafter every two sec for 1 min 40 sec. The activity (%) of the test compound was calculated assuming that variation in the fluorescence value when DMSO was added instead of the test compound was 0%, and variation in the fluorescence value when orexin A (human) (PEPTIDE INSTITUTE, INC.) was added at the final concentration of 10 nM was 100%.

## CC(C)n1ccc2c(c1=O)[C@@H](Cc1cccc(-c3ccccc3)c1)[C@@H](NS(C)(=O)=O)CC2 (racemic) [Example 52, rac-N-[(7S,8R)-8-[([1,1′-biphenyl]-3-yl)methyl]-1-oxo-2-(propan-2-yl)-1,2,5,6,7,8-hexahydroisoquinolin-7-yl]methane sulfonamide]
  0X2R agonist activity (3 μM, %): 90%

## Cc1ccc2n(c1=O)[C@@H](Cc1csc(-c3ccccc3)n1)[C@@H](NS(C)(=O)=O)CC2 (racemic) [Example 58, rac-N-{(3S,4S)-7-methyl-6-oxo-4-[(2-phenyl-1,3-thiazol-4-yl)methyl]-1,3,4,6-tetrahydro-2H-quinolizin-3-yl}methanesulfonamide]
  0X2R agonist activity (3 μM, %): 92%

## Cc1ccc2n(c1=O)[C@@H](Cc1cccc(-c3cccc(F)c3)n1)[C@@H](NS(C)(=O)=O)CC2 (racemic) [Example 59, rac-N-[(3S,4S)-4-{[6-(3-fluorophenyl)pyridin-2-yl]methyl}-7-methyl-6-oxo-1,3,4,6-tetrahydro-2H-quinolizin-3-yl]methanesulfonamide]
  0X2R agonist activity (3 μM, %): 86%

## Cc1ccc2n(c1=O)[C@@H](Cc1cccc(-c3cc(F)cc(F)c3)n1)[C@@H](NS(C)(=O)=O)CC2 (racemic) [Example 60, rac-N-[(3S,4S)-4-{[6-(3,5-difluorophenyl)pyridin-2-yl]methyl}-7-methyl-6-oxo-1,3,4,6-tetrahydro-2H-quinolizin-3-yl]methanesulfonamide]
  0X2R agonist activity (3 μM, %): 83%

## CS(=O)(=O)N[C@H]1CCc2c(Cl)nc(Cl)c(=O)n2[C@H]1Cc1cccc(-c2ccccc2)c1 (racemic) [Example 61, rac-N-{(6S,7S)-6-[([1,1′-biphenyl]-3-yl)methyl]-1,3-dichloro-4-oxo-6,7,8,9-tetrahydro-4H-pyrido[1,2-a]pyrazin-7-yl}methanesulfonamide]
  0X2R agonist activity (3 μM, %): 51%

## CN1CC[C@@H]2CC[C@H](NS(C)(=O)=O)[C@H](Cc3cccc(-c4ccccc4)c3)N2C1=O (racemic) [Example 62, rac-N-{(4aS,7S,8S)-8-[([1,1′-biphenyl]-3-yl)methyl]-2-methyl-1-oxooctahydro-1H-pyrido[1,2-c]pyrimidin-7-yl}methanesulfonamide]
  0X2R agonist activity (3 μM, %): 92%

## COC1(C(=O)N[C@H]2CCc3ncn(C(C)C)c(=O)c3[C@H]2Cc2cccc(-c3ccccc3)c2)CC1 (racemic) [Example 63, rac-N-[(5R,6S)-5-[([1,1′-biphenyl]-3-yl)methyl]-4-oxo-3-(propan-2-yl)-3,4,5,6,7,8-hexahydroquinazolin-6-yl]-1-methoxycyclopropane-1-carboxamide]
  0X2R agonist activity (3 μM, %): 92%

## Cc1ccc2n(c1=O)[C@@H](Cc1csc(-c3cccc(F)c3)n1)[C@@H](NS(C)(=O)=O)CC2 (racemic) [Example 64, rac-N-[(3S,4S)-4-{[2-(3-fluorophenyl)-1,3-thiazol-4-yl]methyl}-7-methyl-6-oxo-1,3,4,6-tetrahydro-2H-quinolizin-3-yl]methanesulfonamide]
  0X2R agonist activity (3 μM, %): 100%

## CC(C)n1cnc2c(c1=O)[C@@H](Cc1cccc(-c3cc(F)cc(F)c3)c1)[C@@H](NS(C)(=O)=O)CC2 (racemic) [Example 67, rac-N-[(5R,6S)-5-[(3′,5′-difluoro[1,1′-biphenyl]-3-yl)methyl]-4-oxo-3-(propan-2-yl)-3,4,5,6,7,8-hexahydroquinazolin-6-yl]methanesulfonamide]
  0X2R agonist activity (3 μM, %): 105%

## Cc1nc2c(c(=O)n1C(C)C)[C@@H](Cc1cccc(-c3ccccc3)c1)[C@@H](NS(C)(=O)=O)CC2 (racemic) [Example 70, rac-N-{(5R,6S)-5-[([1,1′-biphenyl]-3-yl)methyl]-2-methyl-4-oxo-3-(propan-2-yl)-3,4,5,6,7,8-hexahydroquinazolin-6-yl}methanesulfonamide]
  0X2R agonist activity (3 μM, %): 97%

## CCn1c(C)nc2c(c1=O)C(Cc1cccc(-c3ccccc3)c1)C(NS(C)(=O)=O)CC2 (racemic) [Example 71, rac-N-{(5R,6S)-5-[([1,1′-biphenyl]-3-methyl]-3-ethyl-2-methyl-4-oxo-3,4,5,6,7,8-hexahydroquinazolin-6-yl}methanesulfonamide]
  0X2R agonist activity (3 μM, %): 90%

## CC(C)n1ccc2c(c1=O)[C@@H](Cc1cccc(-c3cccc(F)c3)c1)[C@@H](NS(C)(=O)=O)CC2 (racemic) [Example 74, rac-N-[(7S,8R)-8-[(3′-fluoro[1,1′-biphenyl]-3-yl)methyl]-1-oxo-2-(propan-2-yl)-1,2,5,6,7,8-hexahydroisoquinolin-7-yl]methanesulfonamide]
  0X2R agonist activity (3 μM, %): 91%

## CCn1c(C)nc2c(c1=O)C(Cc1cccc(-c3cc(F)cc(F)c3)c1)C(NS(C)(=O)=O)CC2 (racemic) [Example 75]
  0X2R agonist activity (3 μM, %): 92%

## CCn1c(C)nc2c(c1=O)[C@@H](Cc1cccc(-c3cccc(C)c3)c1)[C@@H](NS(C)(=O)=O)CC2 (racemic) [Example 78, rac-N-{(5R,6S)-3-ethyl-2-methyl-5-[(3′-methyl[1,1′-biphenyl]-3-yl)methyl]-4-oxo-3,4,5,6,7,8-hexahydroquinazolin-6-yl}methanesulfonamide]
  0X2R agonist activity (3 μM, %): 100%

## CCn1ccc2c(c1=O)[C@@H](Cc1cccc(-c3cccc(F)c3)c1)[C@@H](NS(C)(=O)=O)CC2 (racemic) [Example 79, rac-N-{(7S,8R)-2-ethyl-8-[(3′-fluoro[1,1′-biphenyl]-3-yl)methyl]-1-oxo-1,2,5,6,7,8-hexahydroisoquinolin-7-yl}methanesulfonamide]
  0X2R agonist activity (3 μM, %): 102%

## CCS(=O)(=O)N[C@H]1CCc2ncn(C(C)C)c(=O)c2[C@H]1Cc1cccc(-c2ccccc2)c1 (racemic) [Example 80, rac-N-[(5R,6S)-5-[([1,1′-biphenyl]-3-yl)methyl]-4-oxo-3-(propan-2-yl)-3,4,5,6,7,8-hexahydroquinazolin-6-yl]ethanesulfonamide]
  0X2R agonist activity (3 μM, %): 93%

## CCS(=O)(=O)N[C@H]1CCc2ncn(C(C)C)c(=O)c2[C@H]1Cc1cccc(-c2cccc(F)c2)c1 (racemic) [Example 81, rac-N-[(5R,6S)-5-[(3′-fluoro[1,1′-biphenyl]-3-yl)methyl]-4-oxo-3-(propan-2-yl)-3,4,5,6,7,8-hexahydroquinazolin-6-yl]ethanesulfonamide]
  0X2R agonist activity (3 μM, %): 96%

## CCS(=O)(=O)N[C@H]1CCc2ncn(C(C)C)c(=O)c2[C@H]1Cc1cccc(-c2cccc(C)c2F)c1 (racemic) [Example 83, rac-N-[(5R,6S)-5-[(2′-fluoro-3′-methyl[1,1′-biphenyl]-3-yl)methyl]-4-oxo-3-(propan-2-yl)-3,4,5,6,7,8-hexahydroquinazolin-6-yl]ethanesulfonamide]
  0X2R agonist activity (3 μM, %): 100%

## CCS(=O)(=O)N[C@H]1CCc2ncn(C(C)C)c(=O)c2[C@H]1Cc1cccc(-c2cccc(F)c2F)c1 (racemic) [Example 85, rac-N-[(5R,6S)-5-[(2′,3′-difluoro[1,1′-biphenyl]-3-yl)methyl]-4-oxo-3-(propan-2-yl)-3,4,5,6,7,8-hexahydroquinazolin-6-yl]ethanesulfonamide]
  0X2R agonist activity (3 μM, %): 98%

## CCn1ccc2c(c1=O)[C@@H](Cc1cccc(-c3ccccc3)c1F)[C@@H](NS(C)(=O)=O)CC2 (racemic) [Example 87, rac-N-{(7S,8R)-2-ethyl-8-[(2-fluoro[1,1′-biphenyl]-3-yl)methyl]-1-oxo-1,2,5,6,7,8-hexahydroisoquinolin-7-yl}methanesulfonamide]
  0X2R agonist activity (3 μM, %): 97%

## CCn1ccc2c(c1=O)[C@@H](Cc1cccc(-c3cccc(C)c3)c1F)[C@@H](NS(C)(=O)=O)CC2 (racemic) [Example 93, rac-N-{(7S,8R)-2-ethyl-8-[(2-fluoro-3′-methyl[1,1′-biphenyl]-3-yl)methyl]-1-oxo-1,2,5,6,7,8-hexahydroisoquinolin-7-yl}methanesulfonamide]
  0X2R agonist activity (3 μM, %): 101%

## Cc1cnc2n(c1=O)[C@@H](Cc1cccc(-c3ccccc3)c1)[C@@H](NS(C)(=O)=O)CC2 (racemic) [Example 94, rac-N-{(6S,7S)-6-[([1,1′-biphenyl]-3-yl)methyl]-3-methyl-4-oxo-6,7,8,9-tetrahydro-4H-pyrido[1,2-a]pyrimidin-7-yl}methanesulfonamide]
  0X2R agonist activity (3 μM, %): 89%
